Test results from US20250163388A1, “METHODS FOR DERIVATION AND PROPAGATION OF AVIAN PLURIPOTENT STEM CELLS AND APPLICATIONS THEREOF” (UNIVERSITY OF SOUTHERN CALIFORNIA, priority 2022, published 2025).
Where two headings read alike, the source gives them in different places.

How the values were obtained:
Format in all cases: cell-based
[1] = system: chicken blastodermal cells / chicken ESCs; experiment: Derivation and self-renewal culture of chicken ESCs from EGK.X blastodermal cells; settings: for emergence of morphologically undifferentiated ESC colonies: EGK.X blastodermal cells from Rhode Island Red eggs, single supplement, FIG. 8A
Procedure: (§1) Freshly laid avian fertile eggs at EGK.X-XII stages were kept at 16° C. before extraction. To harvest cells from yolk, a filter paper-based method was applied. Filter paper with a hole at center was placed on top of the embryo. The outer edge of the filter paper was cut together with the vitelline membranes. Embryo were then released from yolk together with the filter paper and washed in PBS solution. Next, embryo was transferred into a 15 ml tube free of the paper ring and dissociated by pipetting inside N2B27 medium. Dissociated cells were cultured in tissue plates coated with irradiated mouse embryonic fibroblast (MEF) cells as feeder layer. Basal medium used for routine ESC maintenance was N2B27 medium composed of Dulbecco's Modified Eagle Medium/Nutrient Mixture F-12 (DMEM/F12):Neuralbasal (1:1) plus 0.5×N2, 0.5×B27 supplement and 20 μg/ml ovotransferrin with the addition of 1× penicillin-streptomycin. Avian ESC self-renewal was kept with 2.5 μM IWR-1, 2 μM Gö6983, 2 μM SB431542 plus chicken LIF (10 ng/ml for ESCs and 40 ng/ml for other avian ESCs). ESCs were cultured at 38° C. in 5% CO2 with daily medium change. To passage, TrypLE was used to incubate the cells for 5 min and neutralized with basal medium in triple amount. Cells were handled with 5 ml pipette all the time to avoid dissociation into singles. Cells can be frozen in Cellbanker 2 and stored at −150° C.

avian ESCs [2] = experiment: Self-renewal of avian ESCs (species not specified)
Procedure: as §1

[3] = system: quail blastodermal cells / quail ESCs; experiment: Derivation and self-renewal culture of quail ESCs
Procedure: We tested whether ESCs could be derived from other avian species in OT/2i. We isolated blastodermal cells from fertilized pheasant, duck and turkey eggs and cultured them in OT/2i. […] We examined whether blocking signaling pathways involved in cardiomyocyte differentiation from pluripotent stem cells could improve ESC self-renewal.
as §1, with “ESCs were cultured at 38° C. in 5% CO2 with daily medium change. To passage, TrypLE was used to incubate the cells for 5 min and neutralized with basal medium in triple amount. Cells were handled with 5 ml pipette all the time to avoid dissociation into singles. Cells can be frozen in Cellbanker 2 and stored at −150° C.” left out

avian ESCs [4] = experiment: Induction of primordial germ cells (PGCs) from avian ESCs; settings: data not shown
Excerpt: Next, we assessed the potential of chicken ESCs to differentiate into the germ cell lineage. We generated EBs from chicken ESCs and examined the expression of germ cell markers including Dazl, Cvh, Cxcr4, Sycp3 and Stra8. […] To further investigate germ cell differentiation potential of chicken ESCs, we examined the expression of key primordial germ cell (PGC) marker, DAZL by immunofluorescence staining in both undifferentiated chicken ESCs and differentiated EBs. […] A subset of cells (1-3%) in day 3-4 EBs stained positive for DAZL (FIG. 6C). DAZL expression could also be detected inside goose ESC-derived EBs (FIG. 6C).

ostrich ESCs = experiment: Derivation and self-renewal culture of ostrich ESCs
Procedure: as §1

NC(=O)c1ccc(-c2nc(-c3ccc4c(c3)OCO4)c(-c3ccccn3)[nH]2)cc1 [SB431542, 4-[4-(2H-1,3-Benzodioxol-5-yl)-5-(pyridin-2-yl)-1H-imidazol-2-yl]benzamide]
chicken ESC self-renewal [1]: stabilize and proliferate chicken ESCs in long-term passages | self-renewal of avian ESCs (avian ESCs [2]): does not promote the self-renewal

human LIF: human leukemia inhibitory factor
quail ESC derivation and long-term self-renewal [3]: cannot be substituted

human ortholog: human ortholog of ovotransferrin
chicken ESC self-renewal [1]: could not be replaced

COc1ccc2c(c1)c(C1=C(c3c[nH]c4ccccc34)C(=O)NC1=O)cn2CCCN(C)C [Gö6983]
emergence of morphologically undifferentiated ESC colonies [1]: Morphologically undifferentiated ESC colonies emerged

O=C(Nc1cccc2cccnc12)c1ccc(N2C(=O)[C@@H]3[C@H](C2=O)[C@@H]2C=C[C@H]3C2)cc1 [IWR-1]
emergence of morphologically undifferentiated ESC colonies [1]: Morphologically undifferentiated ESC colonies emerged

B1: BMP4: a TGF-β superfamily ligand (protein, UniProt P12644 293-408, looked up)
Bone morphogenetic protein 4: SPKHHSQRARKKNKNCRRHSLYVDFSDVGWNDWIVAPPGYQAFYCHGDCPFPLADHLNSTNHAIVQTLVNSVNSSIPKACCVPTELSAISMLYLDEYDKVVLKNYQEMVVEGCGCR
induction of PGCs (avian ESCs [4]): did not respond

B2: chicken LIF: chicken leukemia inhibitory factor, SEQ ID NO: 2; yeast-derived recombinant (protein, listed as Gallus gallus)
chain: MRLIPAGVVPFVALLLLQRRPVSGRALLGTSSACPTNGLCRANVLEQTRRQVALLNATAQDLFSLYLKCQGEPFSSESDRLCSPSGIFFPPFHVNRTTERKEVMVAMYKLFAFLNASLGNITRDQEELNPMAKELLNRLHNTTKTTRGLISNLTCLLCKHYNIFQVDVSYGESSKDKSAFKKKQQGCQVLRKYVQVIAQAARVLLPHLSPA
ostrich ESC derivation, maintenance and differentiation (ostrich ESCs): induced differentiation | ostrich ESC derivation, maintenance and differentiation (ostrich ESCs; listed as LIF): differentiating effect | chicken ESC self-renewal [1]: stabilize and proliferate chicken ESCs in long-term passages | quail ESC derivation and long-term self-renewal [3]: is necessary
